Values quoted from earlier work in US12208399B2, “Electrochemical separation and recovery of metals” (YALE UNIVERSITY, priority 2017, dated 2025).
Converted amounts (≈) assume the structure as drawn.

Row | SMILES | Solubility in water
1 | O=C1C(Cl)=CC(=Nc2ccc(O)cc2)C=C1Cl [DCIP, 2,6-dichloroindophenol] | 10 mg/mL (≈ 37.3 mM)
2 | Cc1cc2nc3c(=O)[nH]c(=O)nc-3n(C[C@@H](O)[C@@H](O)[C@@H](O)COP(=O)(O)O)c2cc1C [RMP, riboflavin 5′-monophosphate] | 100 mg/mL (≈ 219 mM)
